Assay results as given in patent US11497740B2, “Use of Jumonji C demethylase inhibitors for the treatment and prevention of chemotherapy resistance and radioresistance in cancer” (THE BOARD OF REGENTS OF THE UNIVERSITY OF TEXAS SYSTEM, priority 2016, dated 2022).

Tests used:
H1299 Parental cells = experiment: Microarray gene expression after 24 h treatment, H1299 Parental cells; format: cell-based, human; settings: 0.2 μM JIB-04 or 1 μM GSK-J4, fold changes ≥1.5, P ≤0.05
Description: Gene expression profiling was performed using Illumina HumanWG-6 V3 BeadArrays (for NSCLC patient tumors) or Illumina HumanHT-12 V4 BeadArrays (for cell lines and xenografts). Cell line and xenograft microarrays included biological replicates (Cell lines: 5 for parental, 3 for most resistant variant, 2 for each intermediate resistance time-point; Xenografts: 3 tumors each for parental and resistant group). Data were pre-processed using the R package mbcb for background correction (Ding et al., 2008), then log-transformed and quantile-normalized with the R package preprocessCore or using in-house MATRIX software (MicroArrayTRansformation In eXcel). Microarray data can be found under GEO accession GSE77209.
Log ratios, unpaired t-test p values and color-coded heat maps were obtained using MATRIX. For comparisons involving progressively resistant cell line series, analyses were performed using R package by fitting linear regression model on gene expression data against the log transformed IC50 values as measures of drug response. We fitted beta-uniform mixture model to a set of p-values using the R package ClassComparison. Genes with p-values below the FDR cutoff of 0.1 were considered statistically significant. For xenograft data, differential gene expression analysis was performed by student's t-test. […]

γH2AX foci = experiment: Immunofluorescence DSB repair kinetics, γH2AX foci; format: cell-based, Human
Description: (§1) NSCLCs were seeded onto Lab-Tek II Chamber Slides (Thermo Fisher) and 24 hours later pretreated with JIB-04 or DMSO for 4 h. Then cells were exposed to a total dose of 2 Gy (γH2AX and 53BP1) or 10 Gy (RAD-51 and DNAPKcs p-T2609) radiation. For knockdown and overexpression experiments H1299 cells were transfected using the Amaxa Nucleofector; program X-005. Specifically, 3×10^6 were transfected with siRNA duplexes targeting JMJD2A, JMJD2B, Jarid1A, Jarid1b, scrambled siRNA (250 nM final concentration) or expression vectors pCMVHA-JMJD2A, pCMVHA-JMJD2B, pCMVHA-Jarid1A, pCMVHA-Jarid1B, PC-2 for 72 hours, followed by quantification of expression or irradiation. Then, cells were fixed in 4% formaldehyde/PBS for 15 min, permeabilized with 0.5% Triton X-100 for 15 min on ice, and blocked with 5% bovine serum albumin in PBS for 1 h. The slides were incubated with an antibody against phospho-Histone γH2AX (1:1000, 3 h at room temperature), 53BP1 (1:500, 3 h at room temperature), Rad-51 (1:500, 48 hs 4° C.) or DNAPKcs p-T2609 (1:500, 48 hs 4° C.). Alexa Fluor 488-conjugated goat anti-Rabbit, […] goat anti-mouse or rhodamine red-conjugated goat anti-mouse secondaries antibodies were used (1:1000, 1 h at room temperature). Slides were mounted in a Vectashield mounting medium containing 4′,6-diamidino-2-phenylindole (DAPI). Cells were analyzed on a Zeiss upright fluorescent microscope.

H1299 = experiment: Clonogenic survival with ionizing radiation, H1299; format: cell-based, Human; settings: 16 nM JIB-04; for radiosensitization (clonogenic survival): drug 4 h before IR, 175 nM GSK-J4
Description: Cells were serially diluted to appropriate concentrations and plated into 60-mm dish in triplicate for 4 h. Then cells were treated with the indicated drugs, and irradiated 4 hours later with graded doses of radiation for concurrent treatment or irradiated and 4 hours later the drugs added for post-treatment. All cells were irradiated at room temperature in ambient air using a 137Cs source (Mark 1-68 irradiator, JL Shepherd & Associated). Surviving colonies were stained with crystal violet approximately 10 to 14 days later and colonies formed with more than 50 cells were counted. Clonogenic fraction of irradiated cells was normalized to the plating efficiency of unirradiated controls. The data are presented as the mean±SD. The curve S=e^−(αD+βD2) was fitted to the experimental data using a least square fit algorithm using the program Sigma Plot 11.0 (Systat Software, Inc.).

ABCB1/MDR1 = experiment: qRT-PCR of ABCB1/MDR1 in treated H1299 T18 cells; format: cell-based, human; settings: for expression of MDR1: H1299 T18 cells
Source text: Total RNA was isolated using RNeasy Plus Mini kit (Qiagen) and cDNA was generated using iScript cDNA synthesis kit (BioRad). For epigenetic enzymes, transcripts were detected by SYBR Green chemistry in real time quantitative PCR assays using validated primers. TBP and GAPDH were used as endogenous controls. […] For all non-epigenetic transcripts, TaqMan probes (Life Technologies) were utilized in multiplex with GAPDH internal reference gene. Additionally, a reference sample containing pooled RNA from normal human and tumor tissues (Stratagene) was used. PCR reactions were run using the ABI 7300 Real-time PCR System and analyzed with the included software. The comparative CT method was used to compute relative mRNA expression.

[1] = test system: H3K27me3 demethylase activity; experiment: Histone demethylase activity in tumor lysates by ELISA (H3K27me3); format: in vivo; settings: H1299 T18 xenografts, drug-treated vs vehicle
Source text: To evaluate whether the targeted KDM enzymatic activity was reduced in the JmjC inhibitor-treated tumors in vivo, the inventors measured histone demethylase activity in drug-treated and vehicle-control tumor lysates by ELISA. […] Altogether, the results confirmed reduction of the targeted KDM enzymatic activity with cytostatic/cytotoxic effects in JmjC inhibitor-treated chemoresistant xenografts.

53BP1 foci = experiment: Immunofluorescence DSB repair kinetics, 53BP1 foci; format: cell-based, Human; settings: for 53BP1 foci resolution: H1299 and A549, 4 h pretreatment, then IR
Description: as §1

| SMILES | gene expression changes (total probes) (H1299 Parental cells) [probes] | γH2AX foci remaining unresolved at late time points (γH2AX foci; H1299 and A549, 4 h pretreatment with colony formation IC50 dose, then IR) [%] | γH2AX foci formation and resolution (γH2AX foci; normal HBEC30KT cells, 500 nM JIB-04, 2 Gy) | γH2AX foci resolution (γH2AX foci; prostate cancer cell line LNCap, JIB-04 and IR, data not shown) | radiosensitization, JIB-04 before IR vs 4 h post-irradiation (H1299) | radiosensitization (clonogenic survival) (H1299) | expression of MDR1 (ABCB1/MDR1) | decrease in ABCB1/MDR1 mRNA expression (ABCB1/MDR1; high dose JIB-04 (10×-20×IC50), 24-48 h treatment) | decrease in ABCB1/MDR1 mRNA expression (ABCB1/MDR1; low dose JIB-04 (1×IC50), 1 wk treatment) | H3K27me3 demethylase activity in tumor lysates [1] | 53BP1 foci resolution (53BP1 foci) | 53BP1 foci formation and resolution (53BP1 foci; HCC-95 cells, 35 nM JIB-04 4 h, 2 Gy) | defects in γH2AX foci resolution (γH2AX foci; H1299 and A549, 4 h pretreatment, then IR) |
| --- | --- | --- | --- | --- | --- | --- | --- | --- | --- | --- | --- | --- | --- |
| Clc1ccc(N/N=C(\c2ccccc2)c2ccccn2)nc1 [JIB-04] | 519 | > 30 | no defects | defects in γH2AX foci resolution | significantly more robust when administering JIB-04 first | had a radiosensitization/radioenhancement effect | not altered | 10-20% | 10-20% | significantly inhibited | defective | delayed 53BP1 foci formation and resolution |  |
| CCOC(=O)CCNc1cc(N2CCc3ccccc3CC2)nc(-c2ccccn2)n1 [GSK-J4] | 224 |  |  |  |  | failed to radiosensitize | not altered |  |  | significantly inhibited H3K27me3 demethylase activity | not observed |  | not observed |
